Laboratory results reported in US20230416221A1, “DIHYDROISOQUINOLINONE AND ISOINDOLINONE DERIVATIVES AND USES THEREOF” (HEFEI INSTITUTES OF PHYSICAL SCIENCE, CHINESE ACADEMY OF …, priority 2020, published 2023).
Like-named read-outs stand apart in the source and are kept apart here.

Key:
[1] = system: acute myeloid leukemia cell line MOLM14; assay: Growth of cancer cells, Cell Titer-Glo GI50, MOLM14; assay type: cell-based; conditions: read-out: GI50 MOLM 14
[2] = system: histiocytic lymphoma U-937; assay: Growth of cancer cells, Cell Titer-Glo GI50, U937; assay type: cell-based; conditions: Homo sapiens, read-out: GI50 U937
[3] = system: acute myeloid leukemia cell line MV4-11; assay: Growth of cancer cells, Cell Titer-Glo GI50, MV4-11; conditions: read-out: GI50 MV4-11
[4] = system: human chronic myeloid leukemia cell K562; assay: Growth of cancer cells, Cell Titer-Glo GI50, K562; assay type: cell-based; conditions: read-out: GI50 K562
[5] = system: acute myeloid leukemia cell line MOLM13; assay: Growth of cancer cells, Cell Titer-Glo GI50, MOLM13; assay type: cell-based
[6] = system: acute myeloid leukemia cell line OCI-AML-3; assay: Growth of cancer cells, Cell Titer-Glo GI50, OCI-AML-3; assay type: cell-based; conditions: Homo sapiens, read-out: GI50 AML3
[7] = system: MOLM13 drug resistant strain MOLM13 BR1; assay: Growth of drug resistant strain MOLM13 BR1, Cell Titer-Glo GI50; assay type: cell-based; conditions: 72 hours
CDK9/CyclinT1 protein = CDK9/CyclinT1 protein (Homo sapiens (Human), UniProt P50750); assay: Enzyme activity assay of CDK9 protein inhibition in vitro, CDK9/CyclinT1
[8] = system: human ovarian granulosa tumor cell COV434; assay: Growth of cancer cells, Cell Titer-Glo GI50, COV434; assay type: cell-based; conditions: Homo sapiens, COV434, 72 h, read-out: GI50 COV434
CDK9 = CDK9 (Homo sapiens (Human), UniProt P50750); assay: Binding activity of compound and CDK9, split luciferase system (C37-CL / CDK9-NL) in HEK-293T cells; assay type: cell-based
Source text: The plasmid of split luciferase system was constructed by molecular cloning technology. The N-terminal domain (NLuc) and C-terminal domain (CLuc) of luciferase were respectively cloned and inserted into the vector PCDNA3 to construct NLuc-PCDNA3 and CLuc-PCDNA3 vectors, and the polyclonal sites were reserved at both ends of the sequence. Then CDC37 and CDK9 were cloned into the corresponding vectors to construct C37-CL and CDK9-NL vectors. C37-CL plasmid sequence is shown in SEQ ID NO. 1. CDK9-NL plasmid sequence is shown in SEQ ID NO. 2.
The mixed transfection complex was added to the 10 cm cell culture dish and cultured at 37° C. and 5% CO2 for 24 hours. […] After counting, the transfected cells were placed in a 96-well white Corning cell culture plate (purchased from Corning, U.S.) with 100 μL, 5000 cells/well. After 12 hours, the medium was removed from the 96-well plate and 100 μL culture medium containing corresponding concentration of the testing compound was added, which was cultured continuously for 12 hours. After 12 hours, 20 μL Luciferase-Glo (purchased from Promega, U.S.) testing reagent was added to each well. After mixing, the […] value was detected using a microplate reader.

[9] = Homo sapiens, MOLM-13, 72 h, read-out: GI50 MOLM 13
[10] = Homo sapiens, MOLM-14, incubated for 72 hours, Cell Titer-Glo
[11] = Homo sapiens, MOLM-13, BAY1251152-resistant MOLM13 strain
[12] = Homo sapiens, K562, incubated for 72 hours, Cell Titer-Glo
[13] = Homo sapiens, MOLM-13, incubated for 72 hours, Cell Titer-Glo, Table 1, read-out: GI50 MOLM 13
[14] = Homo sapiens, MOLM-13, incubated for 72 hours, Cell Titer-Glo, Table 2, read-out: GI50 MOLM13
[15] = U-937, incubated for 72 hours, Cell Titer-Glo
[16] = incubated for 72 hours, Cell Titer-Glo

Chain of CDK9 (P50750 whole entry, the tested form may be a part): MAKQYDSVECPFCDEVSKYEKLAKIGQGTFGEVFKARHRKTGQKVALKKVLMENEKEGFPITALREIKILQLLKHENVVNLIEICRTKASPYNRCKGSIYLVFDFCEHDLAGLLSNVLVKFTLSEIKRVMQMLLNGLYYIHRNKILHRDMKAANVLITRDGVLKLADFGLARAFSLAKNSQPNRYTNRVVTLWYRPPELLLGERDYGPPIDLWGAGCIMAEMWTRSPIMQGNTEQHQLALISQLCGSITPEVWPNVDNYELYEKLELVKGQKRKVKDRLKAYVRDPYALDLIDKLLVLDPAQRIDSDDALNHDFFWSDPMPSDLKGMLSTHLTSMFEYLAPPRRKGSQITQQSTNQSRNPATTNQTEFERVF
Chain of CDK9/CyclinT1 protein (P50750 whole entry): as the sequence (P50750 whole entry, the tested form may be a part) above
Chain of CDK9/CyclinT1 protein (O60563 whole entry partner): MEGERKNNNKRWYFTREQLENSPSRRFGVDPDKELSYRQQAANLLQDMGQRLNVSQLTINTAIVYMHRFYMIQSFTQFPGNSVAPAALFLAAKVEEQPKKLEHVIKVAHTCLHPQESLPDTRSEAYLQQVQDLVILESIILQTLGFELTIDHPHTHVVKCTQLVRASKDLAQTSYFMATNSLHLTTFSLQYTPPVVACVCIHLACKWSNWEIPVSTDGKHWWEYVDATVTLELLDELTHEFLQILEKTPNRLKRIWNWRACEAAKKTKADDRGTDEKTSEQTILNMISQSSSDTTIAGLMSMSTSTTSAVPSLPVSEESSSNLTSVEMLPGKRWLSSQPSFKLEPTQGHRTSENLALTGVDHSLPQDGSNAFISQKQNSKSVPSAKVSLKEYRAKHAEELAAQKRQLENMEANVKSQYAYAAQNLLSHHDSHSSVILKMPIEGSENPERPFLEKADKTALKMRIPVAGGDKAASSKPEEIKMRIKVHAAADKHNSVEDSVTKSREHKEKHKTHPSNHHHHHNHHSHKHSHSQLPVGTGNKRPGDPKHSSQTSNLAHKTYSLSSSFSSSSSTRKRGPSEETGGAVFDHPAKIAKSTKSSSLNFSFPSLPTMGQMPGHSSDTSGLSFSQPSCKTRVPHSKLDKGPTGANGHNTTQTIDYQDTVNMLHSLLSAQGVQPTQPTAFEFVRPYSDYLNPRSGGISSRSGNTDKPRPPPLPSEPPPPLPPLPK

| Structure (SMILES) | GI50 ([3]; Homo sapiens, MV4-11, 72 h) [nM] | GI50 [1, 10] [nM] | GI50 [4, 12] [nM] | GI50 [5, 13] [nM] | IC50 (CDK9/CyclinT1 protein) [nM] | further results |
| --- | --- | --- | --- | --- | --- | --- |
| CC1(C)CNC(=O)c2ccc(-c3ccnc(Nc4cccc(CS(C)(=O)=O)c4)n3)cc21 [Compound 28, 4,4-dimethyl-6-(2-((3-((methylsulfonyl)methyl)phenyl)amino)pyrimidin-4-yl)-3,4-dihydroisoquinolin-1(2H)-one] | 2 |  |  |  |  | GI50 ([1]; Homo sapiens, MOLM-14, 72 h): 2 nM; GI50 ([2]; U-937, 72 h): 2 nM; GI50 ([4]; Homo sapiens, K562, 72 h): 10 nM; GI50 [5, 9]: 1 nM; GI50 ([6]; 72 h): 2 nM |
| CN1CCN(c2cc(F)cc(Nc3ncc(F)c(-c4ccc5c(c4)C(C)(C)CNC5=O)n3)c2)CC1 [Compound 73, 6-(5-fluoro-2-((3-fluoro-5-(4-methylpiperazin-1-yl)phenyl)amino)pyrimidin-4-yl)-4,4-dimethyl-3,4-dihydroisoquinolin-1(2H)-one] |  | < 1 | 26 | < 1 |  | GI50 [7, 11]: 0.345 nM; GI50 [5, 14]: 1.64 nM |
| CC1(C)CNC(=O)c2ccc(-c3nc(Nc4ccc(F)c(C5(S(C)(=O)=O)CC5)c4)ncc3F)cc21 [Compound 63, 6-(5-fluoro-2-((4-fluoro-3-(1-(methylsulfonyl)cyclopropyl)phenyl)amino)pyrimidin-4-yl)-4,4-dimethyl-3,4-dihydroisoquinolin-1(2H)-one] |  | 44 |  | 19 |  |  |
| CC1(C)NC(=O)c2ccc(-c3nc(Nc4ccc(F)c(CS(C)(=O)=O)c4)ncc3Cl)cc21 [Compound 51, 5-(5-chloro-2-((4-fluoro-3-((methylsulfonyl)methyl)phenyl)amino)pyrimidin-4-yl)-3,3-dimethylisoindoline-1-one] |  | 15 |  |  |  |  |
| COc1ccc(Nc2nccc(-c3ccc4c(c3)C(C)(C)CNC4=O)n2)cc1CS(C)(=O)=O [Compound 45, 6-(2-((4-methoxy-3-((methylsulfonyl)methyl)phenyl)amino)pyrimidin-4-yl)-4,4-dimethyl-3,4-dihydroisoquinolin-1(2H)-one] |  | 96 |  | 30 |  |  |
| CC1(C)CNC(=O)c2ccc(-c3ccnc(NC4CCN(S(C)(=O)=O)CC4)n3)cc21 [Compound 105, 4,4-dimethyl-6-(2-((1-(methylsulfonyl)piperidin-4-yl)amino)pyrimidin-4-yl)-3,4-dihydroisoquinolin-1(2H)-one] | 82 | 43 |  |  | 15 |  |
| COCCN[C@H]1CC[C@H](Nc2ncc(Cl)c(-c3ccc4c(c3)C(C)(C)NC4=O)n2)CC1 [Compound 22, 5-(5-chloro-2-(((1r,4r)-4-((2-methoxyethyl)amino)cyclohexyl)amino)pyrimidin-4-yl)-3,3-dimethylisoindoline-1-one] |  | 41 |  | 28 | 13 |  |
| CN(C)S(=O)(=O)c1cccc(Nc2nccc(-c3ccc4c(c3)C(C)(C)CNC4=O)n2)c1 [Compound 29, 3-((4-(4,4-dimethyl-1-oxo1,2,3,4-tetrahydroisoquinolin-6-yl)pyrimidin-2-yl)amino)-N,N-dimethylbenzenesulfonamide] | 57 | 59 | 942 | 35 | 27 | GI50 [2, 15]: 186 nM; GI50 [6, 16]: 153 nM |
| CN1CCN(c2cc(Nc3ncc(F)c(-c4ccc5c(c4)C(C)(C)CNC5=O)n3)ccc2F)CC1 [Compound 72, 6-(5-fluoro-2-((4-fluoro-3-(4-methylpiperazin-1-yl)phenyl)amino)pyrimidin-4-yl)-4,4-dimethyl-3,4-dihydroisoquinolin-1(2H)-one] |  | 5.5 |  | < 1 | 15 |  |
| CC1(C)CNC(=O)c2ccc(-c3ccnc(Nc4ccc(F)c(CS(C)(=O)=O)c4)n3)cc21 [Compound 36, 6-(2-((4-fluoro-3-((methylsulfonyl)methyl)phenyl)amino)pyrimidin-4-yl)-4,4-dimethyl-3,4-dihydroisoquinolin-1(2H)-one] | 3 |  |  |  |  | GI50 ([1]; Homo sapiens, MOLM-14, 72 h): 2 nM; GI50 ([4]; Homo sapiens, K562, 72 h): 9 nM; GI50 [5, 9]: < 1 nM |
| CC1(C)CNC(=O)c2ccc(-c3ccnc(N[C@@H]4CCCN(S(C)(=O)=O)C4)n3)cc21 [Compound 104] | 34 | 10 |  |  | 0.9 |  |
| CN1CCN(c2cc(Nc3ncc(Cl)c(-c4ccc5c(c4)C(C)(C)CNC5=O)n3)ccc2F)CC1 [Compound 75, 6-(5-chloro-2-((4-fluoro-3-(4-methylpiperazin-1-yl)phenyl)amino)pyrimidin-4-yl)-4,4-dimethyl-3,4-dihydroisoquinolin-1(2H)-one] |  | 110 |  | 33 |  |  |
| CC1(C)CNC(=O)c2ccc(-c3ccnc(Nc4cccc(S(C)(=N)=O)c4)n3)cc21 (stereo not shown) [Compound 38] | 13 | 16 | 95 | 5 |  |  |
| CN1CCC(NC(=O)c2cccc(Nc3nccc(-c4ccc5c(c4)C(C)(C)CNC5=O)n3)c2)CC1 [Compound 33, 3-((4-(4,4-dimethyl-1-oxo-1,2,3,4-tetrahydroisoquinolin-6-yl)pyrimidin-2-yl)amino)-N-(1-methylpiperidin-4-yl)benzamide] | 6 |  | 77 | 10 |  | GI50 [8]: 8 nM; GI50 [2, 15]: 63 nM; GI50 [6, 16]: 48 nM |
| CC1(C)CNC(=O)c2ccc(-c3ccnc(Nc4ccc(F)c(NS(C)(=O)=O)c4)n3)cc21 [Compound 34, N-(5-((4-(4,4-dimethyl-1-oxo-1,2,3,4-tetrahydroisoquinolin-6-yl)pyrimidin-2-yl)amino)-2-fluorophenyl)methanesulfamide] | 4 |  | 24 | 11 | 6.1 | GI50 [8]: 9 nM; GI50 [2, 15]: 7 nM; IC50 (CDK9): 50 nM; GI50 [6, 16]: 8 nM |
| CC1(C)CNC(=O)c2ccc(-c3ccnc(N[C@H]4CC[C@H](CC(=O)O)CC4)n3)cc21 [Compound 106] |  |  |  |  | 10.4 |  |
| CC(C)N1CCN(c2cc(Nc3ncc(F)c(-c4ccc5c(c4)C(C)(C)CNC5=O)n3)ccc2F)CC1 [Compound 80, 6-(5-fluoro-2-((4-fluoro-3-(4-isopropylpiperazin-1-yl)phenyl)amino)pyrimidin-4-yl)-4,4-dimethyl-3,4-dihydroisoquinolin-1(2H)-one] |  | 7.2 | 15 | 3.3 |  | GI50 [7, 11]: 12.3 nM; GI50 [5, 14]: 11.6 nM |
| CN1CCC(NC(=O)c2cc(Nc3nccc(-c4ccc5c(c4)C(C)(C)CNC5=O)n3)ccc2F)CC1 [Compound 41] | 6.6 | 25 | 84 | 11 | 2.5 | GI50 [2, 15]: 13 nM; IC50 (CDK9): 114 nM; GI50 [6, 16]: 23 nM |
| CC(=O)N[C@@H]1CCC[C@H](C(=O)Nc2cc(-c3ccc4c(c3)C(C)(C)CNC4=O)c(Cl)cn2)C1 [Compound 96, (1S,3R)-3-acetylamino-N-(5-chloro-4-(4,4-dimethyl-1-oxo-1,2,3,4-tetrahydroisoquinolin-6-yl)pyridin-2-yl)cyclohexyl-1-formamide] |  |  |  |  |  | GI50 [1, 16]: 17 nM; IC50 (CDK9/CyclinT1 protein; read-out: CDK9/CyclinT1 Protein activity (IC50)): 0.52 nM; GI50 [3, 16]: 9 nM; GI50 ([7]; BAY1251152-resistant MOLM13 strain): 5.6 nM; GI50 [4, 16]: 72 nM; GI50 ([5]; incubated for 72 hours, Cell Titer-Glo, Table 1, read-out: GI50 MOLM 13): 8 nM |
| CN1CCN(c2ccc(Nc3nccc(-c4ccc5c(c4)C(C)(C)CNC5=O)n3)cc2)CC1 [Compound 40, 4,4-dimethyl-6-(2-((4-(4-methylpiperazin-1-yl)phenyl)amino)pyrimidin-4-yl)-3,4-dihydroisoquinolin-1(2H)-one] | 1.7 | 5.8 | 25 | 3 | 6.6 | GI50 [2, 15]: 4.6 nM; GI50 [7, 11]: 4.39 nM; IC50 (CDK9): 67 nM; GI50 [6, 16]: 5 nM |
